assay: Human HepG2 cell viability assay in 384 well format; format: toxicity, cell-based; parameters: dose 125 nL, time 70.5 hour; cytotoxicity at 70.5 h: concentration not given beside the values; details: HepG2 cells, read-out: Inhibition

Compared with `COc1c(CNCC(=O)N2CCN(C)CC2)c(C(C)C)nn1C`, `CN1CCc2ncc(CNC(=O)c3cccn3C)n2CC1` is lower in cytotoxicity at 70.5 h: -5.29% for the first, -7.23% for the second.

First: Cc1cc(NC(=O)NCC2CCOC2)no1 (stereo unspecified)
Second: c1nc(-c2nc(C3CCOC3)no2)cs1 (stereo unspecified)
The cytotoxicity at 70.5 h of the first is lower: -11.6% for the first, -1.71% for the second.

Compared with `O=C(Nc1cccc(F)c1)C1=NOC2(CCNCC2)C1`, `OC1(CNc2ccc(Br)cn2)CCOCC1` is higher in cytotoxicity at 70.5 h: -4.38% for the first, -2.5% for the second.

First: Cn1ccc(C(=O)NC2CCN(c3ncccn3)CC2)cc1=O
Second: CC(NC(=O)NC1CCN(Cc2ccccc2)CC1)c1nncn1C (stereo unspecified)
The cytotoxicity at 70.5 h of the first is lower: -15.3% for the first, 2.2% for the second.

Going from `O=C(C1CCCC1)N1CCCC2(CCN(c3cnccn3)CC2)C1` to `O=C1CCC2(CCCO2)CCN1Cc1noc(C2CCCC2)n1` (stereo unspecified), the cytotoxicity at 70.5 h rises from -8.23% to 0.738%.

First: O=C(NS(=O)(=O)c1c(Cl)cccc1Cl)c1cccc2c1OCCO2
Second: CC(NC(=O)c1cccs1)C(=O)NCc1ccccc1CN1CCCC1 (stereo unspecified)
The cytotoxicity at 70.5 h of the first is lower: -103% for the first, -2% for the second.

Compared with `CN(CCCNC(=O)CN1CCS(=O)(=O)CC1)c1ccccc1`, `CC(C)(O)CCc1ccc(C(=O)N2CCN(CCS(C)(=O)=O)CC2)cc1` is higher in cytotoxicity at 70.5 h: -6.59% for the first, 0.886% for the second.

Compared with `Cc1ncsc1CCN1CCN(C(=O)c2ccc(=O)[nH]c2)CC1`, `Cc1noc(C)c1C(C)NC(=O)N1CCN(c2cccs2)CC1` (stereo unspecified) is higher in cytotoxicity at 70.5 h: -1.09% for the first, 6.76% for the second.

First: CCOC1CCCN(C(=O)c2nn(-c3ccccc3F)cc2O)C1 (stereo unspecified)
Second: O=C(c1cccc2cccnc12)N1CCCC(n2ccnc2)C1 (stereo unspecified)
The cytotoxicity at 70.5 h of the first is higher: -3.95% for the first, -5.33% for the second.

First: CC1COCCN1C(=O)Nc1cnc2c(cnn2C(C)C)c1 (stereo unspecified)
Second: CC(C)CN1CCc2[nH]cnc2C12CCN(C(=O)c1cncn1C)CC2
The cytotoxicity at 70.5 h of the first is higher: -2.52% for the first, -5.88% for the second.

Going from `Cc1nc(CN2CCCC(N(C)Cc3cnc(C)s3)C2)no1` (stereo unspecified) to `CN(C)c1ncc2c(n1)C1(CCN(CC3CC3)C1)COC2` (stereo unspecified), the cytotoxicity at 70.5 h falls from -1.22% to -8.15%.

Compared with `c1csc(-c2nc(CNCCn3cccn3)cs2)c1`, `c1cnnc(NCC2CN(CCn3cccn3)CCO2)c1` (stereo unspecified) is higher in cytotoxicity at 70.5 h: -7.37% for the first, -2.81% for the second.

Going from `Cc1ccc(S(N)(=O)=O)cc1C(=O)N1C[C@@H](CN(C)C)[C@@H](CO)C1` to `Cc1cscc1C(=O)N1CCCC1CC(=O)c1cnn(C)c1` (stereo unspecified), the cytotoxicity at 70.5 h falls from -5.13% to -5.58%.

Compared with `COCCN1C[C@@H]2[C@@H](OC)CCN(Cc3cccc(C)n3)[C@@H]2C1`, `COc1cccc(CC(=O)N2CCCC(n3nc(C)cc3C)C2)c1` (stereo unspecified) is lower in cytotoxicity at 70.5 h: -8.62% for the first, -14.1% for the second.

Compared with `COc1c(Br)cc(Br)cc1CNC(C)Cn1cccn1` (stereo unspecified), `CC(Cn1cccn1)NC(=O)NCc1ccc(S(C)(=O)=O)cc1` (stereo unspecified) is lower in cytotoxicity at 70.5 h: 16.4% for the first, 11.7% for the second.

Compared with `Cn1ncc2c(=O)[nH]c(CN3CCCC3Cc3ccc(F)cc3)nc21` (stereo unspecified), `Cc1cnn(C2CCCN(C(=O)c3cc(-c4cccs4)n[nH]3)C2)c1` (stereo unspecified) is lower in cytotoxicity at 70.5 h: 1.17% for the first, -4.05% for the second.

Going from `CN(Cc1nnc(C2CC2)o1)CC1CCCN1c1cccnn1` (stereo unspecified) to `Cc1cc(NCC2CCN(c3ccccc3)C2)n2ncnc2n1` (stereo unspecified), the cytotoxicity at 70.5 h rises from -9.18% to -1.33%.

First: CSCc1ccc(N2CCC(C(O)CC(C)C)CC2)nc1 (stereo unspecified)
Second: CC(C)n1nc2c(cc1=O)CN(CCOc1ccc(C#N)cc1)CC2
The cytotoxicity at 70.5 h of the first is higher: 6.44% for the first, -12.5% for the second.

Compared with `Cn1c(N)c2c(=O)n(C)c(-c3ccccc3)cc2c(C#N)c1=O`, `O=C1CCC(=O)c2oc3ccc(Br)cc3c2N1` is lower in cytotoxicity at 70.5 h: -10.5% for the first, -12.5% for the second.

First: CC(O)c1cccc(OCc2ccon2)c1 (stereo unspecified)
Second: O=C(c1ccco1)N1CCOCC2(C1)CN(c1cccnc1)C(=O)CO2 (stereo unspecified)
The cytotoxicity at 70.5 h of the first is higher: -2.61% for the first, -3.1% for the second.

First: CCc1nnsc1C(=O)N1CCCC1c1c(C)nn(C)c1OC (stereo unspecified)
Second: CCn1ccnc1CN1CCCN(C(=O)c2cc(C)nn2CC)CC1
The cytotoxicity at 70.5 h of the first is higher: 13.9% for the first, 3.88% for the second.

Going from `Cc1cnn(C2CN(c3nc(C)cc(N(C)C)n3)C2)c1` to `COc1cc(-c2nc3c([nH]2)CCCNC3=O)ccc1OC(C)C`, the cytotoxicity at 70.5 h falls from 0.987% to -3.41%.

First: CCOCc1ncn2c1CN(S(=O)(=O)c1cccs1)CC2
Second: NC(=O)c1csc(N2C[C@@H](CN3CCOCC3)[C@@H](CO)C2)n1
The cytotoxicity at 70.5 h of the first is higher: -0.803% for the first, -2.9% for the second.

Reference: ChEMBL document CHEMBL3507680, “University of Dundee, Gates Library screen for HepG2 cell viability”
